Measurements published in patent publication US20240132464A1, “HETEROCYCLIC COMPOUNDS AS E3 LIGASE INHIBITORS” (Accutar Biotechnology Inc., priority 2022, published 2024).

Biological target: T1, GID4 (Uniprot ID: Q81VV7, residues 124-289) (Homo sapiens, UniProt Q8IVV7)
T1 construct: GID4 (Uniprot ID: Q81VV7, residues 124-289)
T1 sequence (Q8IVV7 124-289): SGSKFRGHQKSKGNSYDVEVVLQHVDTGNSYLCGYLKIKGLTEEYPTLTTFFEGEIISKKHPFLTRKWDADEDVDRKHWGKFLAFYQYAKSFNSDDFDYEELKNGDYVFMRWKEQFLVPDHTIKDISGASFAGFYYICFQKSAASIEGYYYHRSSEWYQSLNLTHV
Experiment: GID4 competitive binding assay (AlphaScreen, GID4/degron peptide PGLW)
Conditions: 24 nM GID4, 48 nM biotinylated degron peptide PGLW, 4° C., read-out: IC50 (Inhibition of GID4/Degron binding by test compounds)
Experimental: GID4 Competitive Binding Assay
GID4 binding affinity of compounds disclosed herein was measured by monitoring the interaction of GID4 with its degron peptide (PGLW) in the presence of the test compounds. A truncated version of GID4 (Uniprot ID: Q81VV7, residues 124-289) with a 6*His at its C-terminus was used in this assay. Tetrapeptide, PGLW, was synthesized and tagged with an additional lysine labeled with biotin at its sidechain.
GID4 competitive binding assays were performed in a 384-well plate at 4° C. in a 20 μL reaction volume. Briefly, 24 nM GID4 (final concentration) proteins were pre-incubated with 48 nM biotinylated degron peptide (final concentration) in an assay buffer containing 20 mM HEPES, pH 7.5, 100 mM NaCl, 1 mM DTT, 0.1% Tween-20, and 0.05% BSA in the presence of the test compound in 2% DMSO (final concentration) at various concentrations for 2 h. 5 ug/ml Streptavidin ALphaScreen donor beads and 5 ug/ml nickel chelate (Ni-NTA) ALphaScreen acceptor beads (PerkinElmer, 6760619C) (final concentrations) were then added to the mixture. After an incubation of 1 h at 4° C., the fluorescent signals were obtained on the EnVision® 2105 Multilabel Plate Reader (PerkinElmer).
Raw ALphaScreen data were converted to a percentage of inhibition (relative to DMSO) using the following equations: […]
For a given test compound concentration X:
Signal (X)=Signal (GID4 & peptide & compound)−Signal (GID4 & buffer & compound)
Percentage of inhibition at concentration X=[1−Signal(X)/Signal (DMSO)]*100% b)
The IC50 values were determined by nonlinear regression of plots of [inhibitor] vs. percentage of inhibition with variable slope.
Table 3 summarizes the inhibition of binding between GID4 and degron peptide with compounds of the present disclosure. Compounds were ranked into bins as follows for IC50: A indicates <500 nM; B indicates 500 nM-5000 nM; C indicates >5000 nM.

Cc1cc(N2CCCC(c3ccn[nH]3)C2)nc(N)n1 (stereo not drawn) [Compound 209, 4-(3-(1H-pyrazol-5-yl)piperidin-1-yl)-6-methylpyrimidin-2-amine]
IC50: > 5000 nM

CC(C)c1cc(N2CCCC(n3cnc4ccccc43)C2)nc(N)n1 (stereo not drawn) [Compound 256, 4-(3-(1H-benzo[d]imidazol-1-yl)piperidin-1-yl)-6-isopropylpyrimidin-2-amine]
IC50: < 500 nM

Nc1nc(NC2CC2)cc(N2CCO[C@@H](c3ccccc3)C2)n1 (racemic) [Compound 95, (S/R)-N4-cyclopropyl-6-(2-phenylmorpholino)pyrimidine-2,4-diamine]
IC50: > 5000 nM

Nc1nc(N)c(F)c(N2CCOC(c3ccccc3Br)C2)n1 (single isomer, unassigned) [Compound 49, (R/S)-6-(2-(2-bromophenyl)morpholino)-5-fluoropyrimidine-2,4-diamine]
IC50: > 5000 nM

CCOc1ccc(Br)c(C2CN(c3cc(C(C)C)nc(N)n3)CCN2)c1 (single isomer, unassigned) [Compound 25, (R/S)-4-(3-(2-bromo-5-ethoxyphenyl)piperazin-1-yl)-6-isopropylpyrimidin-2-amine]
IC50: < 500 nM

c1ccn2c(C3CCCN(c4ccnc5[nH]cnc45)C3)cnc2c1 (stereo not drawn) [Compound 62, 7-(3-(imidazo[1,2-a]pyridin-3-yl)piperidin-1-yl)-3H-imidazo[4,5-b]pyridine]
IC50: < 500 nM

CN(C)[C@H]1CC[C@H](NC(=O)c2ccc(-c3cc(O)c4ncccc4c3)cc2)CC1 [Compound 287, N-(trans-4-(dimethylamino)cyclohexyl)-4-(8-hydroxyquinolin-6-yl)benzamide]
IC50: < 500 nM

CC(C)c1cc(N2CC[C@H](O)[C@@H](c3ccccc3Br)C2)nc(N)n1 (relative stereo) [Compound 223, (3,4-trans)-1-(2-amino-6-isopropylpyrimidin-4-yl)-3-(2-bromophenyl)piperidin-4-ol]
IC50: 500 to 5000 nM

CC(C)c1cc(N2CCCC(c3cnc4c(F)cc(F)cn34)C2)nc(N)n1 (stereo not drawn) [Compound 242, 4-(3-(6,8-difluoroimidazo[1,2-a]pyridin-3-yl)piperidin-1-yl)-6-isopropylpyrimidin-2-amine]
IC50: 500 to 5000 nM

CC(C)c1cc(N2CCN[C@@H](c3cc(C(F)(F)F)ccc3Br)C2)nc(N)n1 (racemic) [Compound 14, (S/R)-4-(3-(2-bromo-5-(trifluoromethyl)phenyl)piperazin-1-yl)-6-isopropylpyrimidin-2-amine]
IC50: 500 to 5000 nM

Nc1nc(C2CC2)cc(N2CCNC(c3cnc4ccccn34)C2)n1 (single isomer, unassigned) [Compound 103, (S/R)-4-cyclopropyl-6-(3-(imidazo[1,2-a]pyridin-3-yl)piperazin-1-yl)pyrimidin-2-amine]
IC50: 500 to 5000 nM

CN1CC(CNC(=O)c2ccc(-c3cc(O)c4ncccc4c3)cc2)C1 [Compound 298, 4-(8-hydroxyquinolin-6-yl)-N-((1-methylazetidin-3-yl)methyl)benzamide]
IC50: < 500 nM

COc1ccccc1C1CN(c2cc(C(C)C)nc(N)n2)CCN1 (stereo not drawn) [Compound 171, 4-isopropyl-6-(3-(2-methoxyphenyl)piperazin-1-yl)pyrimidin-2-amine]
IC50: 500 to 5000 nM

CN(C)CCCNC(=O)c1ccc(-c2cc3cccnc3c(O)c2Cl)cc1 [Compound 321, 4-(7-chloro-8-hydroxyquinolin-6-yl)-N-(3-(dimethylamino)propyl)benzamide]
IC50: < 500 nM

CC1CNCCN1c1cc(-c2ccnn2C)c2ccnc(-c3ccn[nH]3)c2n1 (stereo not drawn) [Compound 363, 4-(1-methyl-1H-pyrazol-5-yl)-2-(2-methylpiperazin-1-yl)-8-(1H-pyrazol-5-yl)-1,7-naphthyridine]
IC50: > 5000 nM

CCc1cc(N2CCNC(c3cnc4ccccn34)C2)nc(N)n1 (single isomer, unassigned) [Compound 28, (S/R)-4-ethyl-6-(3-(imidazo[1,2-a]pyridin-3-yl)piperazin-1-yl)pyrimidin-2-amine]
IC50: < 500 nM

CN(C)CCCNC(=O)c1cnc(-c2cc(O)c3ncccc3c2)s1 [Compound 274, N-(3-(dimethylamino)propyl)-2-(8-hydroxyquinolin-6-yl)thiazole-5-carboxamide]
IC50: < 500 nM

Nc1nccc2ccc(-c3cccc(C(=O)N4CCCC4)c3)cc12 [Compound 353, (3-(1-aminoisoquinolin-7-yl)phenyl)(pyrrolidin-1-yl)methanone]
IC50: 500 to 5000 nM

O=C(c1cccc(-c2ccc3c(=O)[nH]ccc3c2)c1)N1CCCC1 [Compound 352, 6-(3-(pyrrolidine-1-carbonyl)phenyl)isoquinolin-1(2H)-one]
IC50: 500 to 5000 nM

CN(C)C1CCN(C(=O)c2cccc(-c3ccc4c(=O)[nH]ccc4c3)c2)C1 (stereo not drawn) [Compound 350, 6-(3-(3-(dimethylamino)pyrrolidine-1-carbonyl)phenyl)isoquinolin-1(2H)-one]
IC50: > 5000 nM

Nc1cc(N2CCNC(c3cnc4ccccn34)C2)nc(N)n1 (racemic) [Compound 119, (S/R)-6-(3-(imidazo[1,2-a]pyridin-3-yl)piperazin-1-yl)pyrimidine-2,4-diamine]
IC50: > 5000 nM

CN(C)CCCNC(=O)c1ccc2c(-c3ccc4ccnc(N)c4c3)csc2c1 [Compound 357, 3-(1-aminoisoquinolin-7-yl)-N-(3-(dimethylamino)propyl)benzo[b]thiophene-6-carboxamide]
IC50: 500 to 5000 nM

CC(C)c1cc(N2CCC(c3cnc4ccccn34)C2)nc(N)n1 (stereo not drawn) [Compound 253, 4-(3-(imidazo[1,2-a]pyridin-3-yl)pyrrolidin-1-yl)-6-isopropylpyrimidin-2-amine]
IC50: 500 to 5000 nM

Nc1nc2c(c(N3CCCC(c4ccn[nH]4)C3)n1)CCCN2 (stereo not drawn) [Compound 187, 4-(3-(1H-pyrazol-5-yl)piperidin-1-yl)-5,6,7,8-tetrahydropyrido[2,3-d]pyrimidin-2-amine]
IC50: 500 to 5000 nM

CNc1nc(C)cc(Nc2cccc(-c3cnccn3)c2)n1 [Compound 190, N2,6-dimethyl-N4-(3-(pyrazin-2-yl)phenyl)pyrimidine-2,4-diamine]
IC50: > 5000 nM

Nc1nc(NC2CC2)nc(N2CCN[C@@H](c3ccccc3Br)C2)n1 (stereo in doubt) [Compound 65, (S/R)-6-(3-(2-bromophenyl)piperazin-1-yl)-N2-cyclopropyl-1,3,5-triazine-2,4-diamine]
IC50: 500 to 5000 nM

Nc1cc(N2CCCC(c3ccn[nH]3)C2)nc(N)n1 (stereo not drawn) [Compound 193, 6-(3-(1H-pyrazol-5-yl)piperidin-1-yl)pyrimidine-2,4-diamine]
IC50: > 5000 nM

CC(C)c1cc(N2CCOC(c3cnc4ccccn34)C2)nc(N)n1 (racemic) [Compound 156, (R/S)-4-(2-(imidazo[1,2-a]pyridin-3-yl)morpholino)-6-isopropylpyrimidin-2-amine]
IC50: > 5000 nM

CN(C)CCCNC(=O)c1ccc(-c2cc(O)c3nc(N)ccc3c2)cc1 [Compound 261, 4-(2-amino-8-hydroxyquinolin-6-yl)-N-(3-(dimethylamino)propyl)benzamide]
IC50: < 500 nM

CN(C)[C@H]1C[C@@H](NC(=O)c2ccc(-c3cc(O)c4ncccc4c3)cc2)C1 [Compound 279, N-(cis-3-(dimethylamino)cyclobutyl)-4-(8-hydroxyquinolin-6-yl)benzamide]
IC50: < 500 nM

Nc1nc2c(c(N3CCCC(c4nnc5ccccn45)C3)n1)SCC2 (stereo not drawn) [Compound 191, 4-(3-([1,2,4]triazolo[4,3-a]pyridin-3-yl)piperidin-1-yl)-6,7-dihydrothieno[3,2-d]pyrimidin-2-amine]
IC50: > 5000 nM

O=C1NCCc2cc(-c3cccc(C(=O)N4CCCC4)c3)ccc21 [Compound 278, 6-(3-(pyrrolidine-1-carbonyl)phenyl)-3,4-dihydroisoquinolin-1(2H)-one]
IC50: 500 to 5000 nM

Nc1cc(N2CC[C@H](O)[C@@H](c3ccccc3Br)C2)nc(N)n1 (relative stereo) [Compound 222, (3,4-trans)-3-(2-bromophenyl)-1-(2,6-diaminopyrimidin-4-yl)piperidin-4-ol]
IC50: 500 to 5000 nM

Nc1cc(N2CCC(c3cnc4ccccn34)C2)nc(N)n1 (stereo not drawn) [Compound 255, 6-(3-(imidazo[1,2-a]pyridin-3-yl)pyrrolidin-1-yl)pyrimidine-2,4-diamine]
IC50: 500 to 5000 nM

CC(C)c1cc(N2CCNC(c3ccccc3Br)C2)nc(N)n1 (stereo not drawn) [Compound 183, 4-(3-(2-bromophenyl)piperazin-1-yl)-6-isopropylpyrimidin-2-amine]
IC50: < 500 nM

CC(C)c1cc(N2CCCC(c3cnc4ncccn34)C2)nc(N)n1 (stereo not drawn) [Compound 245, 4-(3-(imidazo[1,2-a]pyrimidin-3-yl)piperidin-1-yl)-6-isopropylpyrimidin-2-amine]
IC50: < 500 nM
